From PMC10707934, “Design and Synthesis of Novel α-Methylchalcone Derivatives, Anti-Cervical Cancer Activity, and Reversal of Drug Resistance in HeLa/DDP Cells” (Molecules, 2023)

What was measured:
[1] = system: HeLa/DDP cells; assay: Annexin V-FITC/PI pro-apoptosis assay, HeLa/DDP; assay type: cell-based, human; settings: 24 h
Protocol: (§1) Cell fluid (2 mL per well) at a concentration of 1.5 × 10^5 cells / mL was added to a 6-well plate and cultured in a cell incubator with 5% CO2 at 37 °C for 24 h. The old solution was discarded; 2 mL of the medium containing compound 3k was added to each well at a concentration gradient of 2.5, 5, and 10 μM; and the experiment was repeated three times at each concentration. Complete medium containing only cells was used as a blank control group, and 20 μM of cisplatin injection and chalcone was used as a positive control. Cells were harvested following a 24 h incubation period, adhering to the guidelines provided with the BD kit (BD Biosciences Pharmingen, 556547, 10975 Torreyana Road, San Diego, CA, USA). Subsequently, the cells were subjected to staining in a light-restricted environment at ambient temperature for a duration of 15 min, followed by filtration and analysis via flow cytometry.
The pro-apoptotic experiments of compound 3k, cisplatin, and chalcone on HeLa/DDP were performed in the same way as in Section 3.3.3. Western Blotting Analysis in the same way as in Section 3.3.4.

[2] = system: HeLa cells; assay: Transwell Matrigel invasion assay, HeLa; assay type: cell-based, human
Protocol: (§2) The Transwell ([…], Corning Incorporated, New York, NY, USA) was precoated using 50 μL Matrigel for 5 h at 37 °C to achieve solidification. HeLa cells was collected and suspended in a serum-free medium containing varying concentrations (0, 2.5, 5, and 10 μM) of compound 3k, along with 20 μM cisplatin and chalcone. These cell suspensions were then added to the upper wells of a permeabilization chamber at a density of 5 × 10^5 cells/mL. In the lower wells, 600 μL of DMEM containing 10% FBS was added, which had been prepared using 50 μL of Matrigel (diluted 1:8 with serum-free medium from Corning/BD Biosciences). After 24 h of incubation at 37 °C, the invasion cells were fixed using 4% paraformaldehyde and stained using 0.1% crystal violet for 30 min. Then, the chambers were washed using PBS and left to dry. Images were photographed using an inverted fluorescence microscope (Leica Instruments Co., Ltd., Microsystems CMS GmbH, Weizler, Hesse, Germany) and counted using Image J software (V1.8.0.112) for three independent fields randomly.

[3] = system: human cervical epithelial cells H8; assay: MTT toxicity assay, normal cervical epithelial cells H8; assay type: cell-based; settings: 48 h, mean ± SD
Protocol: (§3) All cell types, at a volume of 200 µL per well, were inoculated in 96-well plates at a density of 2.5 × 10^4 cells / mL and cultured for 24 h in an incubator with 5% CO2 at 37 °C. The old culture medium was replaced with 200 µL of fresh medium per well containing positive compounds, at concentrations of 1, 6.25, 12.5, 25, 50, and 100 μM. After 48 h of culture, 20 µL per well of 5 mg·mL^−1 MTT solution was added. After 4 h of culture, the old solution was discarded, and 150 µL per well of DMSO solution was added. Using an enzyme labeler (Thermo Fisher Scientific, Multiskan GO, Waltham, MA, USA), the plates were shaken for 10 min, OD values were determined at 490 nm, and the inhibition rate was calculated. Non-linear regression fitting of the cell growth rate was carried out using SPSS 23.0, and the IC50 of the compound was calculated. The inhibition rate was calculated using the formula: [(ODempty − ODtest)/(ODempty − ODnegative group)] × 100%, (ODempty blank group absorbance, ODtest absorbance of administration group, ODnegative group without cell culture medium). Each group contained six compound holes, and the experimental results averaged three trials. Complete medium containing only cells was used as the blank control; a complete medium without cells as was used as the negative control; and cisplatin, paclitaxel, and adriamycin were used as the positive controls. The concentration gradient was the same as that used for compounds 3a–3p.

[4] = system: HeLa/DDP cells; assay: Transwell Matrigel invasion assay, HeLa/DDP; assay type: cell-based, human; settings: 24 h, control 399
Protocol: as §2
The experimental methods for the effects of compound 3k, cisplatin, and chalcone on HeLa/DDP cell invasion and migration were the same as in Section 3.3.6.

[5] = system: HeLa cells; assay: Annexin V-FITC/PI pro-apoptosis assay, HeLa; assay type: cell-based, human; settings: 24 h
Protocol: as §1

[6] = system: HeLa cells; assay: MTT anti-proliferation assay, HeLa; assay type: cell-based, human; settings: 48 h, mean ± SD
Protocol: as §3, with “3a–3p. […]” for “3a–3p.”

[7] = system: SiHa cells; assay: MTT anti-proliferation assay, SiHa; assay type: cell-based, human; settings: 48 h, mean ± SD
Protocol: as §3

[8] = system: C33A cells; assay: MTT anti-proliferation assay, C33A; assay type: cell-based, human; settings: 48 h, mean ± SD
Protocol: as §3

What does the source list for `COc1ccc(/C=C(\C)C(=O)c2ccc(Cl)c(Cl)c2)cc1OC` [Compound 3k, (E)-1-(3,4-Dichlorophenyl)-3-(3,4-dimethoxyphenyl)-2-methylprop-2-en-1-one]?
pro-apoptotic rate ([1]; 2.5 μM): 36.7%; pro-apoptotic rate ([1]; 5 μM): 46.3%; pro-apoptotic rate ([1]; 10 μM): 63.7%; number of cells undergoing invasion compared to the control group ([2]; 24 h, 2.5, 5, and 10 μM): significant decrease in the number of cells undergoing invasion; IC50 ([3]; Homo sapiens, Epithelial cell): > 100 µM; number of invasion cells ([4]; 2.5 μM): 293; number of invasion cells ([4]; 5 μM): 237; number of invasion cells ([4]; 10 μM): 90; pro-apoptotic rate ([5]; 2.5 μM): 29.6%; pro-apoptotic rate ([5]; 5 μM): 47.2%; pro-apoptotic rate ([5]; 10 μM): 64.8%; IC50 ([6]; Homo sapiens): 9.05 ± 0.53 µM; IC50 ([7]; Homo sapiens): 14.5 ± 0.98 µM; IC50 ([8]; Homo sapiens, C-33-A): 12.1 ± 2.44 µM

How did the pro-apoptotic rate ([1]; 20 μM) turn out when `N.N.[Cl][Pt][Cl]` [Cisplatin, cisplatin, reference compound] was run?
The pro-apoptotic rate was 15.0%.

And the “number of cells undergoing invasion” value ([2]; 24 h, 20 μM)?
Its value is 237.

And the IC50 [3]?
The IC50 was 25.2 ± 1.29 µM.

What about the “number of invasion cells” value ([4]; 20 μM) of the same molecule?
The value was 301.

And the pro-apoptotic rate ([5]; 20 μM)?
Its pro-apoptotic rate is 46.7%.

And the IC50 [6]?
The IC50 was 13 ± 1.82 µM.

What about the IC50 [7] of the same molecule?
Its IC50 is 20.7 ± 1.85 µM.

What about the IC50 [8] of the same molecule?
The IC50 was 6.05 ± 1.15 µM.
